The Kinase Knowledgebase extract (Sharma et al. 2016)

Legend:
[1] = biological target: PIK3CB (Human) (UniProt P42338); test: Inhibition of PIK3CB Kinase Activity
[2] = biological target: PIK3CG (human) (UniProt P48736); test: Inhibition of PIK3CG Kinase Activity
[3] = biological target: PIK3CD (Human) (UniProt O00329); test: Inhibition of PIK3CD Kinase Activity
[4] = biological target: PIK3CA (human) (UniProt P42336); test: Inhibition of PIK3CA Kinase Activity
Sequence of PIK3CA (human) (P42336 whole entry, looked up): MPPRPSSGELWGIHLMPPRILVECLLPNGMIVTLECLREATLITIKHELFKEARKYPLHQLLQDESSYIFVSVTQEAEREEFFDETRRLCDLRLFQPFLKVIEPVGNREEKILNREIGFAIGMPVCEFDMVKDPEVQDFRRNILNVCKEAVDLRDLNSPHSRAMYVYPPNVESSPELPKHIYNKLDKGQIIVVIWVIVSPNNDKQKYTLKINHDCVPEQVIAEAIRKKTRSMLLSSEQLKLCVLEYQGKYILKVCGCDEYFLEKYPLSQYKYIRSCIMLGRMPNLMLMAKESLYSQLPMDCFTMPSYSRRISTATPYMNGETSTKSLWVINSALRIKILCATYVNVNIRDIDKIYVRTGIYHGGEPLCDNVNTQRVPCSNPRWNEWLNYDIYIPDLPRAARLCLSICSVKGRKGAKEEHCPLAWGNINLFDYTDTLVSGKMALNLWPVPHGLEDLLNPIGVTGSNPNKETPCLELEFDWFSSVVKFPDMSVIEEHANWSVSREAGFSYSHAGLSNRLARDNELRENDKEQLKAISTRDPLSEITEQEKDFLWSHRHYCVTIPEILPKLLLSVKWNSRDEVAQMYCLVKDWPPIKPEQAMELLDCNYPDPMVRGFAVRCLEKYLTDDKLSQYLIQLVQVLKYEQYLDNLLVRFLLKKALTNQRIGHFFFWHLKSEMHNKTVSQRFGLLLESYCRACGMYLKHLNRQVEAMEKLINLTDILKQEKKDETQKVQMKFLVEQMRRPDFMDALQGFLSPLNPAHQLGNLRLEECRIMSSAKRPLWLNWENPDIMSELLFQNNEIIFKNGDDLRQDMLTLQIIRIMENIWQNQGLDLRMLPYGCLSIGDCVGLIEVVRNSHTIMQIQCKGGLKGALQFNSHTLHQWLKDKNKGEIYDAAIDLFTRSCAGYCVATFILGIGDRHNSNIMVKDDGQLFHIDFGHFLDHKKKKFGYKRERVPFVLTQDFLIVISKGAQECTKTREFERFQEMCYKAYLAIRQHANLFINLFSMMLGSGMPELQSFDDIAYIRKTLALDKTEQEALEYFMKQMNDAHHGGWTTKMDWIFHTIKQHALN

Sequence of PIK3CB (Human) (P42338 whole entry, looked up): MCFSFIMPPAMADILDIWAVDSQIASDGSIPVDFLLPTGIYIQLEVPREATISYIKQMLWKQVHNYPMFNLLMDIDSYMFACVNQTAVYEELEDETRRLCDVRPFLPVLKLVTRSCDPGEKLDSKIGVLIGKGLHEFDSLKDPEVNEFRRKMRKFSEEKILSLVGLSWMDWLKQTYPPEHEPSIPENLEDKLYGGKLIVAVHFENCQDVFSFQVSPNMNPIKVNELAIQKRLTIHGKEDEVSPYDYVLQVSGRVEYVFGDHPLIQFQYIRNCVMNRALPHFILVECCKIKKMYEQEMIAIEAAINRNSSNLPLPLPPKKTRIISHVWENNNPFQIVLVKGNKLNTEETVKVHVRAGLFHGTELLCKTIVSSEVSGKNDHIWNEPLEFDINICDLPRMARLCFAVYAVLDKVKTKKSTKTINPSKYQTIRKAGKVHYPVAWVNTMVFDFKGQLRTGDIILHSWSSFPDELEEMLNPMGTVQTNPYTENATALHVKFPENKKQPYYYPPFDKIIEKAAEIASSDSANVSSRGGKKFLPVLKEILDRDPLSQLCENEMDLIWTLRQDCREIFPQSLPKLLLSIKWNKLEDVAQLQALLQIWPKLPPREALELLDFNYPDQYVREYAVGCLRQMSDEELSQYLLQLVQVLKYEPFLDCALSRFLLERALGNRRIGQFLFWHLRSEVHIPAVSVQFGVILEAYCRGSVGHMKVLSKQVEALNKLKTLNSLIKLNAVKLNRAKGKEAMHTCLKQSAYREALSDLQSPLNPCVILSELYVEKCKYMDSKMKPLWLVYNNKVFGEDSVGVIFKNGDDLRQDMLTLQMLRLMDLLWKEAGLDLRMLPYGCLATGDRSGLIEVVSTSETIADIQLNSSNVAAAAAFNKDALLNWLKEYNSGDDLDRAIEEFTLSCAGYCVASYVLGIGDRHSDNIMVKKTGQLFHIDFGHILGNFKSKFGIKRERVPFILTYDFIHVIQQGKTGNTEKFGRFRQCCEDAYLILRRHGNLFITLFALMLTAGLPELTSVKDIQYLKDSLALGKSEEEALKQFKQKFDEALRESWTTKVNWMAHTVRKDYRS
Sequence of PIK3CG (human) (P48736 whole entry, looked up): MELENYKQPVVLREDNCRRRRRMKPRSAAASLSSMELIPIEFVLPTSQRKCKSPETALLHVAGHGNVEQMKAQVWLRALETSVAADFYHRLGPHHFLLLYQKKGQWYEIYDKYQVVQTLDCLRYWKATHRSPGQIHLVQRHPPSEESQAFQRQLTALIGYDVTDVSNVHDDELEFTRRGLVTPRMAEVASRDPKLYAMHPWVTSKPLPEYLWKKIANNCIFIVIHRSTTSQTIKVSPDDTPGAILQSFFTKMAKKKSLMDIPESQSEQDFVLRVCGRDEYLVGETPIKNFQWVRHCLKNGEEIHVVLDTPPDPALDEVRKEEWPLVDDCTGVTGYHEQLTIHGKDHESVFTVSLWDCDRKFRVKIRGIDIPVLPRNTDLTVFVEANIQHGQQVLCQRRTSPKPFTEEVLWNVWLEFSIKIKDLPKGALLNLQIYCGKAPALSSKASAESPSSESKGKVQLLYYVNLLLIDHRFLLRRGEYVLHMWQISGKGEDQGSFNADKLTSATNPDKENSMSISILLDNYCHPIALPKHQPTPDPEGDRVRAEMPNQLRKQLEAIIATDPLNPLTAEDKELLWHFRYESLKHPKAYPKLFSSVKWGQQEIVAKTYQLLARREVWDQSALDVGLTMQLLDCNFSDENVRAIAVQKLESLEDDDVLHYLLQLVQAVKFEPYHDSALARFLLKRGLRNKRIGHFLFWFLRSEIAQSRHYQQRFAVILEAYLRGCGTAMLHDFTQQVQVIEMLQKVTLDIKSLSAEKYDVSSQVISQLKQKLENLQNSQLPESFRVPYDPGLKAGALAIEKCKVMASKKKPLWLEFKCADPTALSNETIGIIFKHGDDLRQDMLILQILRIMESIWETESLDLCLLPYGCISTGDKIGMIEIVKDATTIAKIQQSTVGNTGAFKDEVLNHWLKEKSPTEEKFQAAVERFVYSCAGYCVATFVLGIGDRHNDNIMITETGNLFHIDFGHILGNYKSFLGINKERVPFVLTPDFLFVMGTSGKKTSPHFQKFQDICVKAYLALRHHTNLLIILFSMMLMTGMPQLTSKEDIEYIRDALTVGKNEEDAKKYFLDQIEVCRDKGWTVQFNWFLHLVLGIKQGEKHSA
Sequence of PIK3CD (Human) (O00329 whole entry, looked up): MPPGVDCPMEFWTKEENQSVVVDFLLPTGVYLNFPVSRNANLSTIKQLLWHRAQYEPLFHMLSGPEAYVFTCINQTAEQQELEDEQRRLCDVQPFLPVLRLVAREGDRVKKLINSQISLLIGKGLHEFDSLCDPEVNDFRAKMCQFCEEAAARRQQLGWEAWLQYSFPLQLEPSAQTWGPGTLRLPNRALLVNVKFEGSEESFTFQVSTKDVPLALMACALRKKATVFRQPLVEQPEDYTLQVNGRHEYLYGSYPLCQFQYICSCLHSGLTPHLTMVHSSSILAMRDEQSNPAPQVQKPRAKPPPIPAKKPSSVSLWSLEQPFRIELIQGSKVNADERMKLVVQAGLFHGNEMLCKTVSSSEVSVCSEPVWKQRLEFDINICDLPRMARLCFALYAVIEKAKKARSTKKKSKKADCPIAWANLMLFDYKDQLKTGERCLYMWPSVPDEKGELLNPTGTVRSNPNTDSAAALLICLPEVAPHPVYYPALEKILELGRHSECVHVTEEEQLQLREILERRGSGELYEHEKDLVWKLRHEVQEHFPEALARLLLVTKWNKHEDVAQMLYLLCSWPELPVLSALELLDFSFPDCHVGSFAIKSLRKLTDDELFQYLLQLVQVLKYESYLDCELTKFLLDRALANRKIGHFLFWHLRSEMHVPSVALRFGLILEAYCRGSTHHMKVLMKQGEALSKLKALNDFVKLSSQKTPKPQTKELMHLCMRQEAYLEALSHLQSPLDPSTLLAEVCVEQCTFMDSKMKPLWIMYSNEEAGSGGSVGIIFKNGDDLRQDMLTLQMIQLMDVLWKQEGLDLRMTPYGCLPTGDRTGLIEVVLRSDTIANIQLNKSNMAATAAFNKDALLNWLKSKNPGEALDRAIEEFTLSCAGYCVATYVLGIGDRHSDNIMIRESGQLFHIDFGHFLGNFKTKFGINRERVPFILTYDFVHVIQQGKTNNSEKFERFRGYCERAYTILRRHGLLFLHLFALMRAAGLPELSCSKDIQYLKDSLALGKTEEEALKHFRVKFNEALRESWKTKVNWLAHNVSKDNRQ

SMILES | IC50 [1] | IC50 [2] | IC50 [3] | IC50 [4]
C[C@H](Nc1ncnc2[nH]cnc12)c1cc2cccc(-c3cccnc3)c2c(=O)n1C1CC1 | 100 to 1000 nM | < 100 nM | < 100 nM | –
C[C@H](Nc1ncnc2[nH]cnc12)c1cc2cccc(N3CCOCC3)c2c(=O)n1-c1ccccc1 | > 10000 nM | 100 to 1000 nM | 100 to 1000 nM | > 10000 nM
Cc1cn(-c2cccc3cc([C@H](C)Nc4ncnc5[nH]cnc45)n(-c4ccccc4)c(=O)c23)cn1 | > 10000 nM | – | < 100 nM | > 10000 nM
C[C@H](Nc1nc(N)ncc1C(F)(F)F)c1cc2cccc(-c3cnn(C)c3)c2c(=O)n1C1CC1 | > 10000 nM | < 100 nM | < 100 nM | > 10000 nM
C[C@H](Nc1ncnc2[nH]cnc12)c1cc2cccc(N3CCN(C)CC3)c2c(=O)n1-c1ccccc1 | > 10000 nM | > 10000 nM | 100 to 1000 nM | > 10000 nM
C[C@H](Nc1ncnn2ccnc12)c1cc2cccc(-c3cnn(C)c3)c2c(=O)n1-c1ccccc1 | > 10000 nM | 100 to 1000 nM | < 100 nM | –
CCc1cccc2cc([C@H](C)Nc3ncnc4[nH]cnc34)n(-c3ccccc3)c(=O)c12 | – | < 100 nM | < 100 nM | –
COc1ncc(-c2cccc3cc([C@H](C)Nc4ncnc5[nH]cnc45)n(-c4ccccc4)c(=O)c23)cn1 | > 10000 nM | – | < 100 nM | –
C[C@H](Nc1ncnc(N)n1)c1cc2cccc(-c3cnn(C)c3)c2c(=O)n1-c1ccccc1 | > 10000 nM | – | < 100 nM | > 10000 nM
C[C@H](Nc1nc(N)ncc1Cl)c1cc2cccc(-c3cnn(C)c3)c2c(=O)n1-c1ccccc1 | > 10000 nM | 100 to 1000 nM | < 100 nM | > 10000 nM
C[C@H](Nc1ncnc2[nH]cnc12)c1cc2cccc(-c3ccncc3)c2c(=O)n1-c1ccccc1 | – | < 100 nM | < 100 nM | –
C[C@H](Nc1ncnc2[nH]cc(C#N)c12)c1cc2cccc(-c3cnn(C)c3)c2c(=O)n1-c1ccccc1 | – | < 100 nM | < 100 nM | 100 to 1000 nM
C[C@H](Nc1nc(N)ncc1I)c1cc2cccc(-c3cnn(C)c3)c2c(=O)n1-c1ccccc1 | > 10000 nM | < 100 nM | < 100 nM | > 10000 nM
Cc1cnn(-c2cccc3cc([C@H](C)Nc4ncnc5[nH]cnc45)n(-c4ccccc4)c(=O)c23)c1 | > 10000 nM | – | 100 to 1000 nM | > 10000 nM
C[C@H](Nc1ncnc2[nH]cnc12)c1cc2cccc(-c3cnn(C)c3)c2c(=O)n1C1CC1 | – | 100 to 1000 nM | < 100 nM | –
C[C@H](Nc1ncnc2[nH]cnc12)c1cc2cccc(-c3cnn(C)c3)c2c(=O)n1-c1cccc(F)c1 | > 10000 nM | < 100 nM | < 100 nM | –
C[C@H](Nc1nc(N)ncc1C#N)c1cc2cccc(-c3cnn(C)c3)c2c(=O)n1-c1ccccc1 | > 10000 nM | < 100 nM | < 100 nM | > 10000 nM
C[C@H](Nc1ncnc2[nH]cnc12)c1cc2cccc(N3CCCC3)c2c(=O)n1-c1ccccc1 | > 10000 nM | – | – | > 10000 nM
C=Cc1cccc2cc([C@H](C)Nc3ncnc4[nH]cnc34)n(-c3ccccc3)c(=O)c12 | – | < 100 nM | < 100 nM | –
C[C@H](Nc1nc(N)ncc1C#N)c1cc2cccc(-c3cnn(C)c3)c2c(=O)n1C1CC1 | < 100 nM | < 100 nM | < 100 nM | –
C[C@H](Nc1ncnc2[nH]cc(F)c12)c1cc2cccc(-c3cnn(C)c3)c2c(=O)n1C1CC1 | – | 100 to 1000 nM | < 100 nM | –
C[C@H](Nc1ncnc2[nH]cnc12)c1cc2cccc(-c3cccnc3)c2c(=O)n1-c1ccccc1 | – | < 100 nM | < 100 nM | –

SMILES | IC50 [1] | IC50 [2] | IC50 [3] | IC50 [4]
C[C@H](Nc1ncnc2[nH]cnc12)c1cc2cccc(-c3cnn(C)c3)c2c(=O)[nH]1 | > 10000 nM | > 10000 nM | – | > 10000 nM
C[C@H](Nc1ncnc2[nH]cnc12)c1cc2cccc(N(C)C)c2c(=O)n1-c1ccccc1 | > 10000 nM | – | – | > 10000 nM
C[C@H](Nc1nc(N)nc2[nH]cnc12)c1cc2cccc(-c3cccnc3)c2c(=O)n1-c1ccccc1 | – | < 100 nM | < 100 nM | 100 to 1000 nM
C[C@H](Nc1ncnc2[nH]cnc12)c1cc2cccc(-c3cc[nH]n3)c2c(=O)n1-c1ccccc1 | > 10000 nM | < 100 nM | < 100 nM | > 10000 nM
C[C@H](Nc1nc(N)ncc1C(F)(F)F)c1cc2cccc(-c3cnn(C)c3)c2c(=O)n1-c1ccccc1 | > 10000 nM | < 100 nM | < 100 nM | > 10000 nM
Cc1ccc(-c2cccc3cc([C@H](C)Nc4ncnc(N)n4)n(-c4ccccc4)c(=O)c23)cn1 | > 10000 nM | – | 100 to 1000 nM | > 10000 nM
Cc1ccc(-c2cccc3cc([C@H](C)Nc4nc(N)nc5[nH]cnc45)n(-c4ccccc4)c(=O)c23)cn1 | – | < 100 nM | < 100 nM | 100 to 1000 nM
C[C@H](Nc1ncnn2cncc12)c1cc2cccc(-c3cnn(C)c3)c2c(=O)n1-c1ccccc1 | > 10000 nM | > 10000 nM | – | > 10000 nM
C[C@H](Nc1nc(N)nc2[nH]cnc12)c1cc2cccc(-c3cnn(C)c3)c2c(=O)n1-c1ccccc1 | – | < 100 nM | < 100 nM | 100 to 1000 nM
Cc1ccc(-c2cccc3cc([C@H](C)Nc4ncnc5[nH]cnc45)n(-c4ccccc4)c(=O)c23)cn1 | > 10000 nM | < 100 nM | < 100 nM | –
Cc1cc(-c2cccc3cc([C@H](C)Nc4ncnc5[nH]cnc45)n(-c4ccccc4)c(=O)c23)ccn1 | – | < 100 nM | < 100 nM | 100 to 1000 nM
C[C@H](Nc1ncnc2[nH]cnc12)c1cc2cccc(-c3cn[nH]c3)c2c(=O)n1-c1ccccc1 | > 10000 nM | 100 to 1000 nM | < 100 nM | –
C[C@H](Nc1ncnc2[nH]cnc12)c1cc2cccc(-c3cccc(F)c3)c2c(=O)n1-c1ccccc1 | – | < 100 nM | < 100 nM | –
C[C@H](Nc1ncnc2[nH]cnc12)c1cc2cccc(-n3cccn3)c2c(=O)n1-c1ccccc1 | > 10000 nM | – | 100 to 1000 nM | > 10000 nM
C[C@H](Nc1ncnc2[nH]cnc12)c1cc2cccc(-c3cccnc3)c2c(=O)[nH]1 | > 10000 nM | 100 to 1000 nM | < 100 nM | > 10000 nM
C[C@H](Nc1ncnc(N)c1C#N)c1cc2cccc(-c3cnn(C)c3)c2c(=O)n1-c1ccccc1 | > 10000 nM | < 100 nM | < 100 nM | –
C[C@H](Nc1ncnc2[nH]cnc12)c1cc2cccc(-c3cn[nH]c3)c2c(=O)n1C1CC1 | 100 to 1000 nM | < 100 nM | < 100 nM | 100 to 1000 nM
C[C@H](Nc1ncnc2[nH]cnc12)c1cc2cccc(-c3cnn(C)c3)c2c(=O)n1-c1ccccc1 | > 10000 nM | < 100 nM | < 100 nM | > 10000 nM
C[C@H](Nc1ncnc2[nH]cc(C(N)=O)c12)c1cc2cccc(-c3cnn(C)c3)c2c(=O)n1-c1ccccc1 | – | < 100 nM | < 100 nM | –
C[C@H](Nc1ncnc2[nH]cnc12)c1cc2cccc(NC3CCOCC3)c2c(=O)n1-c1ccccc1 | > 10000 nM | – | 100 to 1000 nM | > 10000 nM
C[C@H](Nc1ncnc2[nH]cnc12)c1cc2cccc(C#N)c2c(=O)n1-c1ccccc1 | – | < 100 nM | < 100 nM | > 10000 nM
